Source: PubChem BioAssay (NCI)
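Method: 48-hour compound exposure of cells in 96-well plates, five concentrations, linear interpolation of endpoints. GI50 is the concentration that inhibits growth by half. TGI denotes the concentration required for complete inhibition of growth.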

What was measured:
Test in all cases: NCI tumour cell line growth inhibition, 48 h
U251 CNS = test system: U251 CNS
DU-145 prostate = test system: DU-145 prostate
SF-295 CNS = test system: SF-295 CNS
NCI-H460 lung = test system: NCI-H460 lung
A549 NSCLC = test system: A549 NSCLC
SN12C renal = test system: SN12C renal
SK-MEL-5 melanoma = test system: SK-MEL-5 melanoma
786-0 renal = test system: 786-0 renal
HOP-92 NSCLC = test system: HOP-92 NSCLC
OVCAR-5 ovarian = test system: OVCAR-5 ovarian
SNB-19 CNS = test system: SNB-19 CNS
HCT-116 colon = test system: HCT-116 colon
SF-268 CNS = test system: SF-268 CNS
SF-539 CNS = test system: SF-539 CNS
HCT-15 colon = test system: HCT-15 colon
UACC-62 melanoma = test system: UACC-62 melanoma
HCC-2998 colon = test system: HCC-2998 colon
EKVX NSCLC = test system: EKVX NSCLC
HS 578T breast = test system: HS 578T breast
RXF 393 renal = test system: RXF 393 renal
NCI-H522 lung = test system: NCI-H522 lung
PC-3 prostate = test system: PC-3 prostate
MCF7 breast = test system: MCF7 breast
NCI/ADR-RES ovarian = test system: NCI/ADR-RES ovarian
TK-10 renal = test system: TK-10 renal
CAKI-1 renal = test system: CAKI-1 renal
HOP-62 NSCLC = test system: HOP-62 NSCLC
SW-620 colon = test system: SW-620 colon
OVCAR-8 ovarian = test system: OVCAR-8 ovarian
K-562 leukemia = test system: K-562 leukemia
HL-60(TB) leukemia = test system: HL-60(TB) leukemia
OVCAR-3 ovarian = test system: OVCAR-3 ovarian
LOX IMVI melanoma = test system: LOX IMVI melanoma
SK-OV-3 ovarian = test system: SK-OV-3 ovarian
MDA-MB-435 = test system: MDA-MB-435
UACC-257 melanoma = test system: UACC-257 melanoma
BT-549 breast = test system: BT-549 breast
SR leukemia = test system: SR leukemia
ACHN renal = test system: ACHN renal
IGROV1 ovarian = test system: IGROV1 ovarian
RPMI-8226 leukemia = test system: RPMI-8226 leukemia
M14 melanoma = test system: M14 melanoma
OVCAR-4 ovarian = test system: OVCAR-4 ovarian
SK-MEL-28 melanoma = test system: SK-MEL-28 melanoma
MDA-MB-231 breast = test system: MDA-MB-231 breast
SK-MEL-2 melanoma = test system: SK-MEL-2 melanoma
COLO 205 colon = test system: COLO 205 colon
NCI-H23 lung = test system: NCI-H23 lung
UO-31 renal = test system: UO-31 renal
KM12 colon = test system: KM12 colon
SNB-75 CNS = test system: SNB-75 CNS

**Q.** For COc1ccc(Nc2nc3ccccc3c3occc23)cc1, which GI50 (U251 CNS) is on record?
**A.** 5.13 µM

**Q.** What about the TGI (U251 CNS) of the same molecule?
**A.** 11.7 µM

**Q.** What about the GI50 (DU-145 prostate) of the same molecule?
**A.** 6.65 µM

**Q.** What about the TGI (DU-145 prostate) of the same molecule?
**A.** 13.1 µM

**Q.** And the GI50 (SF-295 CNS)?
**A.** 6.64 µM

**Q.** What about the TGI (SF-295 CNS) of the same molecule?
**A.** 13.2 µM

**Q.** And the GI50 (NCI-H460 lung)?
**A.** > 50 µM

**Q.** And the TGI (NCI-H460 lung)?
**A.** > 50 µM

**Q.** And the GI50 (A549 NSCLC)?
**A.** 32.9 µM

**Q.** And the TGI (A549 NSCLC)?
**A.** > 50 µM

**Q.** What about the GI50 (SN12C renal) of the same molecule?
**A.** 7.37 µM

**Q.** What about the TGI (SN12C renal) of the same molecule?
**A.** 17.5 µM

**Q.** And the GI50 (SK-MEL-5 melanoma)?
**A.** 5.08 µM

**Q.** And the TGI (SK-MEL-5 melanoma)?
**A.** 11.1 µM

**Q.** And the GI50 (786-0 renal)?
**A.** 5.02 µM

**Q.** And the TGI (786-0 renal)?
**A.** 10.8 µM

**Q.** And the GI50 (HOP-92 NSCLC)?
**A.** 7.62 µM

**Q.** And the TGI (HOP-92 NSCLC)?
**A.** 21.8 µM

**Q.** And the GI50 (OVCAR-5 ovarian)?
**A.** 7.95 µM

**Q.** And the TGI (OVCAR-5 ovarian)?
**A.** 16.6 µM

**Q.** And the GI50 (SNB-19 CNS)?
**A.** 7.62 µM

**Q.** What about the TGI (SNB-19 CNS) of the same molecule?
**A.** 16.5 µM

**Q.** What about the GI50 (HCT-116 colon) of the same molecule?
**A.** 6.9 µM

**Q.** And the TGI (HCT-116 colon)?
**A.** 13.4 µM

**Q.** And the GI50 (SF-268 CNS)?
**A.** 6.55 µM

**Q.** What about the TGI (SF-268 CNS) of the same molecule?
**A.** 14.4 µM

**Q.** What about the GI50 (SF-539 CNS) of the same molecule?
**A.** 8.89 µM

**Q.** What about the TGI (SF-539 CNS) of the same molecule?
**A.** 18.9 µM

**Q.** And the GI50 (HCT-15 colon)?
**A.** 2.95 µM

**Q.** What about the TGI (HCT-15 colon) of the same molecule?
**A.** 10.7 µM

**Q.** What about the GI50 (UACC-62 melanoma) of the same molecule?
**A.** 5.48 µM

**Q.** What about the TGI (UACC-62 melanoma) of the same molecule?
**A.** 11.4 µM

**Q.** And the GI50 (HCC-2998 colon)?
**A.** 5 µM

**Q.** What about the TGI (HCC-2998 colon) of the same molecule?
**A.** 11.1 µM

**Q.** And the GI50 (EKVX NSCLC)?
**A.** 9.96 µM

**Q.** And the TGI (EKVX NSCLC)?
**A.** > 50 µM

**Q.** What about the GI50 (HS 578T breast) of the same molecule?
**A.** 7.12 µM

**Q.** What about the TGI (HS 578T breast) of the same molecule?
**A.** 16.3 µM

**Q.** What about the GI50 (RXF 393 renal) of the same molecule?
**A.** 5.42 µM

**Q.** What about the TGI (RXF 393 renal) of the same molecule?
**A.** 19.1 µM

**Q.** And the GI50 (NCI-H522 lung)?
**A.** 14.5 µM

**Q.** And the TGI (NCI-H522 lung)?
**A.** 33 µM

**Q.** And the GI50 (PC-3 prostate)?
**A.** 12.9 µM

**Q.** And the TGI (PC-3 prostate)?
**A.** > 50 µM

**Q.** And the GI50 (MCF7 breast)?
**A.** 7.02 µM

**Q.** What about the TGI (MCF7 breast) of the same molecule?
**A.** 27.2 µM

**Q.** And the GI50 (NCI/ADR-RES ovarian)?
**A.** 9.32 µM

**Q.** And the TGI (NCI/ADR-RES ovarian)?
**A.** 18.7 µM

**Q.** And the GI50 (TK-10 renal)?
**A.** 6.83 µM

**Q.** And the TGI (TK-10 renal)?
**A.** 16.4 µM

**Q.** And the GI50 (CAKI-1 renal)?
**A.** > 50 µM

**Q.** What about the TGI (CAKI-1 renal) of the same molecule?
**A.** > 50 µM

**Q.** What about the GI50 (HOP-62 NSCLC) of the same molecule?
**A.** 10 µM

**Q.** And the TGI (HOP-62 NSCLC)?
**A.** 23.7 µM

**Q.** And the GI50 (SW-620 colon)?
**A.** 4.06 µM

**Q.** What about the TGI (SW-620 colon) of the same molecule?
**A.** 11 µM

**Q.** What about the GI50 (OVCAR-8 ovarian) of the same molecule?
**A.** 8.51 µM

**Q.** And the TGI (OVCAR-8 ovarian)?
**A.** 22.7 µM

**Q.** And the GI50 (K-562 leukemia)?
**A.** 6.74 µM

**Q.** And the TGI (K-562 leukemia)?
**A.** > 50 µM

**Q.** What about the GI50 (HL-60(TB) leukemia) of the same molecule?
**A.** 10.3 µM

**Q.** What about the TGI (HL-60(TB) leukemia) of the same molecule?
**A.** > 50 µM

**Q.** And the GI50 (OVCAR-3 ovarian)?
**A.** 7.85 µM

**Q.** What about the TGI (OVCAR-3 ovarian) of the same molecule?
**A.** > 50 µM

**Q.** And the GI50 (LOX IMVI melanoma)?
**A.** 0.649 µM

**Q.** What about the TGI (LOX IMVI melanoma) of the same molecule?
**A.** 5.32 µM

**Q.** What about the GI50 (SK-OV-3 ovarian) of the same molecule?
**A.** 0.005 µM

**Q.** What about the TGI (SK-OV-3 ovarian) of the same molecule?
**A.** 9.95 µM

**Q.** And the GI50 (MDA-MB-435)?
**A.** 1.63 µM

**Q.** What about the TGI (MDA-MB-435) of the same molecule?
**A.** 5.59 µM

**Q.** And the GI50 (UACC-257 melanoma)?
**A.** 19.8 µM

**Q.** What about the TGI (UACC-257 melanoma) of the same molecule?
**A.** > 50 µM

**Q.** And the GI50 (BT-549 breast)?
**A.** 6.08 µM

**Q.** And the TGI (BT-549 breast)?
**A.** 13.5 µM

**Q.** What about the GI50 (SR leukemia) of the same molecule?
**A.** 0.663 µM

**Q.** And the TGI (SR leukemia)?
**A.** > 50 µM

**Q.** What about the GI50 (ACHN renal) of the same molecule?
**A.** 5.35 µM

**Q.** And the TGI (ACHN renal)?
**A.** 13.7 µM

**Q.** And the GI50 (IGROV1 ovarian)?
**A.** 37.4 µM

**Q.** What about the TGI (IGROV1 ovarian) of the same molecule?
**A.** > 50 µM

**Q.** What about the GI50 (RPMI-8226 leukemia) of the same molecule?
**A.** 8.35 µM

**Q.** And the TGI (RPMI-8226 leukemia)?
**A.** 22.6 µM

**Q.** What about the GI50 (M14 melanoma) of the same molecule?
**A.** 9.72 µM

**Q.** And the TGI (M14 melanoma)?
**A.** 18.9 µM

**Q.** And the GI50 (OVCAR-4 ovarian)?
**A.** 9.2 µM

**Q.** What about the TGI (OVCAR-4 ovarian) of the same molecule?
**A.** 39.7 µM

**Q.** And the GI50 (SK-MEL-28 melanoma)?
**A.** 7.19 µM

**Q.** What about the TGI (SK-MEL-28 melanoma) of the same molecule?
**A.** 18.8 µM

**Q.** What about the GI50 (MDA-MB-231 breast) of the same molecule?
**A.** 1.34 µM

**Q.** And the TGI (MDA-MB-231 breast)?
**A.** 10.3 µM

**Q.** What about the GI50 (SK-MEL-2 melanoma) of the same molecule?
**A.** 8.68 µM

**Q.** And the TGI (SK-MEL-2 melanoma)?
**A.** 22.5 µM

**Q.** And the GI50 (COLO 205 colon)?
**A.** 7.71 µM

**Q.** What about the TGI (COLO 205 colon) of the same molecule?
**A.** 18.6 µM

**Q.** And the GI50 (NCI-H23 lung)?
**A.** 5.72 µM

**Q.** What about the TGI (NCI-H23 lung) of the same molecule?
**A.** 12.4 µM

**Q.** What about the GI50 (UO-31 renal) of the same molecule?
**A.** 12.3 µM

**Q.** And the TGI (UO-31 renal)?
**A.** > 50 µM

**Q.** And the GI50 (KM12 colon)?
**A.** 1.78 µM

**Q.** What about the TGI (KM12 colon) of the same molecule?
**A.** 7.99 µM

**Q.** For O=C1NC(=O)C(Cc2cccc(OCc3ccccc3)c2)C(=O)N1, which GI50 (SR leukemia) is on record?
**A.** 4.07 µg/mL

**Q.** With C[N+](C)(C)C(CSSCC(C(=O)[O-])[N+](C)(C)C)C(=O)[O-] (stereo not given) as the molecule, how does the GI50 (HOP-92 NSCLC) read?
**A.** 72.1 µM

**Q.** What about the GI50 (SNB-75 CNS) of the same molecule?
**A.** 32.5 µM

**Q.** What about the GI50 (MDA-MB-435) of the same molecule?
**A.** 25.5 µM

**Q.** What about the TGI (MDA-MB-435) of the same molecule?
**A.** 71.2 µM
